From patent publication US20220354805A1, “Cannabidiol (CBD) as Chemical for Treating Aging-related Degenerative Diseases and Promoting Health Aging” (Hemix Biotech Limited, priority 2021, published 2022) come the findings set out here.

For test [1], the system named is p21 and p16 in wildtype and LMNA^G609G/G609G MEFs. Briefly: Western blotting of senescence markers in MEFs. The format is cell-based, mouse. Conditions: 4-day CBD treatment. Here is the method:
In the step of determining the protein expression levels of senescence markers, the primary mouse embryonic fibroblasts (MEFs) at passage 3 were seeded and cultured in 6-well plate and treated with CBD for 4 days. The cells were then washed twice with ice-cold phosphate buffered saline (PBS). RIPA 150 buffer (20 mM Tris-HCl pH 7.5, 1 mM EDTA pH 8.0, 150 mM NaCl, 1% Nonidet P-40, 0.5% sodium deoxycholate) supplemented with 1 mM dithiothreitol (DTT) and proteinase inhibitors was added to the cells and shook at 4° C. for 15 minutes. The cells were then collected into Eppendorf tubes and centrifuged at 12000 rpm at 4° C. for 10 minutes. The supernatant was collected and 6×SDS sample buffer (20 mM Tris-HCl pH 7.5, 30% glycerol, 10% sodium dodecyl sulfate (SDS), 0.6 M DTT, 0.03% bromophenol blue) was added. The samples were boiled for 5 minutes. Then they were ready for sodium dodecyl sulfate-polyacrylamide gel electrophoresis (SDS-PAGE) for Western blotting analysis. Depending on the sizes of target proteins, 7-15% polyacrylamide separating gel and 4% polyacrylamide stacking gel were made. Samples and protein ladders were loaded onto the polyacrylamide gel. Sodium dodecyl sulfate-polyacrylamide gel electrophoresis (SDS-PAGE) was performed in running buffer (25 mM Tris-HCl, 190 mM glycine and 0.1% SDS) under constant voltage of 100V for 20-30 minutes until the samples and protein ladders reached the separating gel. By then, SDS-PAGE was set to run under constant voltage of 120V for about 1 hour, depending on the size of target proteins. The proteins in the separating gel were transferred to polyvinylidene difluoride (PVDF) membrane in transfer buffer (25 mM Tris-HCl, 190 mM glycine, and 20% methanol) at constant current 0.4 A for 1.5 hours on ice. The membranes were blocked with 5% skimmed milk in phosphate buffered saline Tween-20 solution (PBST): 1×PBS and 0.1% Tween-20 and shook at room temperature for 1 hour. Primary antibodies diluted in 5% skimmed milk in PBST were added to the membrane and shook at 4° C. overnight. […]
(In general: A western blot detects proteins with antibodies after separation by electrophoresis.)

Another test concerns Caenorhabditis elegans. Briefly: Lifespan analysis of Caenorhabditis elegans. Conditions: C. elegans. It counts as in vivo. Here is the method: In step of analyzing the lifespan of Caenorhabditis elegans, for chemical treatment in Caenorhabditis elegans, chemical was added to the nematode growth medium (NGM) dishes. The NGM with agarose was autoclaved and then cooled down to below 65° C. The different concentrations of chemical were added to NGM. The NGM was then poured into 60 mm dishes and incubated at room temperature overnight. The solidified NGM dishes were stored at 4° C. Escherichia coli OP50 strain was used as the food source for C. elegans. A single colony of OP50 was incubated in 200 mL of lysogeny broth (LB) medium at 37° C. overnight. The OP50 was then killed by incubation at 65° C. for […]. The dead OP50 was spread throughout the surface of the NGM dishes. The NGM dishes with dead OP50 and CBD were stored at 4° C. for up to 2 weeks. The synchronization of C. elegans was carried out by the bleaching method. 20 L4 larvae were picked to each 60 mm dish with different concentrations of chemical and cultured at 20° C. They were monitored every day, and the number of living, dead and missing C. elegans were recorded. The C. elegans were transferred to fresh Petri dishes every 2 days to separate the target worms from their offspring and to ensure if they had enough food source. 10-20 μM of CBD was identified to be the optimal dosage for extending the lifespan of C. elegans.

In test [2] the test system is skin of LMNA^G609G/G609G mice. The test can be described thus: Histology study of mouse skin (hematoxylin and eosin staining). Conditions: CBD treated LMNA^G609G/G609G mice. The format is in vivo. As for the experimental part:
In the step of study the histology of mouse skin and liver, the mice were sacrificed by cervical dislocation under anesthesia by intraperitoneal (IP) injection of 100 mg/kg ketamine and 16 mg/kg xylazine in sterile water. Major organs, including skin, muscle, intestine, kidney, spleen, liver, lung, heart, aorta, were collected. Half of the tissues were snap-frozen in liquid nitrogen and stored at −80° C. for extraction of proteins and RNA. Another half of the tissues were fixed in 4% paraformaldehyde (PFA) in PBS and shook at 4° C. overnight. For paraffin wax sections, the fixed tissues were incubated in 70% ethanol and shook at 4° C. overnight. Followed by stepwise dehydration of tissues in 90%, 95%, 100%, and 100% ethanol for 1 hour each. Then the tissues were incubated in 50% xylene and 50% ethanol for 30 to 40 minutes and transferred to 100% xylene for 10 to 15 minutes. The tissues were then incubated in wax for 30 minutes and transferred to new wax for 3 times. Then the tissues were placed in the wax inside a vacuum chamber overnight. On the following day, the tissues were embedded into paraffin blocks and sectioned into slides with 6 μm in thickness. After the tissue sections were dried, they were incubated in xylene solution twice each for 5 minutes. […]

Test [3] concerns ATF5, CEBPα and TRIB3 in skin of LMNA^G609G/G609G mice. The test can be described thus: Immunofluorescence staining of mouse skin. The format is in vivo. Conditions: CBD treated premature aging mice. As for the experimental part: The tissue sections were washed twice with PBS and incubated in PBSTr (0.1% Triton X-100 in PBS) for 10 minutes. Then the cells were blocked with 5% fetal bovine serum (FBS) in PBSTr for 1 hour at room temperature. Primary antibodies diluted in 5% FBS in PBSTr were added and incubated at 4° C. overnight. On the following day, the cells were washed three times using PBSTr, incubation for 10 minutes each time. Secondary antibodies diluted in 5% FBS in PBSTr were added and incubated at room temperature for 1 hour. The cells were again washed three times using PBSTr, followed by PBS for two times. The slides were mounted with SlowFade Gold antifade reagent. Then the slides were ready to be analyzed under a confocal microscope.

Setting [4] is: wildtype and LMNA^G609G/G609G MEFs.

The structures appear in SMILES notation.

With `C=C(C)[C@@H]1CCC(C)=C[C@H]1c1c(O)cc(CCCCC)cc1O` [CBD, Cannabidiol], the progerin levels result in test [1] (MEFs) is given as “not affected”. Besides, in test [1] (setting [4]), the p16 level result was “downregulate” and the p21 level entry is listed as “downregulate”. Moreover, in the test on Caenorhabditis elegans (10 or 20 μM CBD), the maximum lifespan increase is 8-12.5% and the median lifespan increase was 55-61.5%. In addition, in the test with Caenorhabditis elegans (CBD in NGM dishes, 20° C.), the “optimal dosage for extending the lifespan” value fell in the range of 10 to 20 µM. In test [2], the “decrease of hair follicle density” value is reported as “rescued” and the “loss of skin adipose layer” value was “rescued”. In test [3], the “ATF5 protein level decrease in skin” value is “reversed”, the “CEBPα protein level decrease in skin” value is “reversed” and the “TRIB3 protein level decrease in skin” value is listed as “reversed”.
